Measurements reported in US9434711B2 (Janssen Pharmaceutica, NV, priority 2007, dated 2016).

Biological target: canine TRPM8 (Canis lupus familiaris, UniProt Q1A7N1)
Assay: In Vitro Canine TRPM8 Functional Assay (Ca2+ fluorescence, icilin activation)
Assay type: cell-based
Details: for IC50: HEK293 cells stably expressing canine TRPM8, icilin activation, eight-point dose-response, read-out: IC50; for inhibition at 0.2 µM / % Inh @ 0.2 (μM): compound at 0.2 μM, canine TRPM8, icilin activation; for inhibition at 0.2 µM: read-out: % Inh @ 0.2
Outline: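 Eight-point dose-response curves in quadruplicate gave EC50 or IC50 values from a Ca2+-sensitive dye assay in HEK293 cells stably carrying canine TRPM8. Icilin, dosed near its 80% maximal level, followed a 5 min compound exposure.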

Chain of canine TRPM8 (Q1A7N1 1-1104): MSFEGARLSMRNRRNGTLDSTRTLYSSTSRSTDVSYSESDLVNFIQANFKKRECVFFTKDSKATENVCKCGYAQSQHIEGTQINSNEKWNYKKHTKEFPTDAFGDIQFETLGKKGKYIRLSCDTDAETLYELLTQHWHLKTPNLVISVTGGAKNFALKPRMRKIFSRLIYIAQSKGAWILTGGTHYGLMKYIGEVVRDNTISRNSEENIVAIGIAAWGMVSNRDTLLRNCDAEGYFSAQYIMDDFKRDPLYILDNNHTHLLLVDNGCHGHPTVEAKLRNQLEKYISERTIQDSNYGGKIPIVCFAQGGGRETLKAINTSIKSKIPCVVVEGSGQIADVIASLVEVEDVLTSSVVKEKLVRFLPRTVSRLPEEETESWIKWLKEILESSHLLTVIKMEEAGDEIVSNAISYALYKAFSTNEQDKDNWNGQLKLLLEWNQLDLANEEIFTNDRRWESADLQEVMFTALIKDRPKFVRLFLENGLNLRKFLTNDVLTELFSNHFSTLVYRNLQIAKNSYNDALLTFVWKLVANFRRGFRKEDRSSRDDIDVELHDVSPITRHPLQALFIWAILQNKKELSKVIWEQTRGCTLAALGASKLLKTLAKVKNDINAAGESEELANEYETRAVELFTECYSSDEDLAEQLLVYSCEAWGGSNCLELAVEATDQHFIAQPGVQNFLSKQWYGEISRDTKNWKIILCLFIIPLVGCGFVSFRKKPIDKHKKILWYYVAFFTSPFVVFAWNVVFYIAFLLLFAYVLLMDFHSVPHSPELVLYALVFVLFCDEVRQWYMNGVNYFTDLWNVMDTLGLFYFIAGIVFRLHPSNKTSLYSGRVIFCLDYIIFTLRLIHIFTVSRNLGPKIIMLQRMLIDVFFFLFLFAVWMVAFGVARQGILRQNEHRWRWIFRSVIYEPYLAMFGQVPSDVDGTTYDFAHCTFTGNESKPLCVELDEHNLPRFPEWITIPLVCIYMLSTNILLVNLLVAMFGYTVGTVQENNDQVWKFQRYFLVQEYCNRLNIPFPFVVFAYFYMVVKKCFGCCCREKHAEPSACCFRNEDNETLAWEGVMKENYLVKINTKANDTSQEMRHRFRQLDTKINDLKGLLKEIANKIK

SMILES	IC50	inhibition at 0.2 µM	% Inh @ 0.2 (μM)
COc1cc(NS(C)(=O)=O)ccc1S(=O)(=O)N(Cc1ccc(F)c(C(F)(F)F)c1)c1sc2ccccc2c1Cl [Compound 744, N-(3-Chloro-benzo[b]thiophen-2-yl)-N-(4-fluoro-3-trifluoromethyl-benzyl)-4-methanesulfonylamino-2-methoxy-benzenesulfonamide]	0.0573 µM	99%	–
Cc1c(N(CCC2CC2)S(=O)(=O)c2nc3ccccc3n2C)sc2ccccc12 [Compound 745, N-(Cyclopropyl-ethyl)-N-(3-methyl-benzo[b]thiophen-2-yl)-1-methyl-1H-benzimidazole-2-sulfonamide]	0.0849 µM	74%	–
Cc1c(N(Cc2ccc(OC(F)(F)F)cc2)S(=O)(=O)c2nc3ccccc3n2C)sc2ccccc12 [Compound 746, N-(3-Methyl-benzo[b]thiophen-2-yl)-N-(4-trifluoromethoxy-benzyl)-1-methyl-1H-benzimidazole-2-sulfonamide]	–	31%	–
Cc1c(N(Cc2ccc(F)c(C(F)(F)F)c2)S(=O)(=O)c2ccc3c(c2)CC(N)C3)sc2ccccc12 (stereo not shown) [Compound 747, 2-Amino-indan-N-(3-methyl-benzo[b]thiophen-2-yl)-N-(4-fluoro-3-trifluoromethyl-benzyl)-N-sulfonamide]	–	–	48%
Cc1c(N(CCCCC(F)(F)F)S(=O)(=O)c2ccc(N(C)C)cc2)sc2ccccc12 [Compound 748, N-(3-Methyl-benzo[b]thiophen-2-yl)-N-(5,5,5-trifluoro-pentyl)-4-dimethylamino-benzenesulfonamide]	0.0053 µM	101%	–
Cc1c(N(CCCCC(F)(F)F)S(=O)(=O)c2ccc(N3CCOCC3)cc2)sc2ccccc12 [Compound 750, N-(3-Methyl-benzo[b]thiophen-2-yl)-N-(5,5,5-trifluoro-pentyl)-4-morpholino-benzenesulfonamide]	0.0092 µM	101%	–
Cc1c(N(CCC2CC2)S(=O)(=O)c2ccc(N3CCCCC3)cc2)sc2ccccc12 [Compound 751, N-(3-Methyl-benzo[b]thiophen-2-yl)-N-(cyclopropyl-ethyl)-4-piperidin-1-yl-benzenesulfonamide]	–	54%	–
Cc1c(N(CCCCC(F)(F)F)S(=O)(=O)c2ccc(N3CCCCC3)cc2)sc2ccccc12 [Compound 752, N-(3-Methyl-benzo[b]thiophen-2-yl)-N-(5,5,5-trifluoro-pentyl)-4-piperidine-benzenesulfonamide]	–	–	65%
COC(=O)c1ccc(S(=O)(=O)N(Cc2ccc(OC(F)(F)F)cc2)c2sc3ccccc3c2C2CC2)cc1 [Compound 753, N-(3-Cyclopropyl-benzo[b]thiophen-2-yl)-N-(4-trifluoromethoxy-benzyl)-4-carbomethoxy-benzenesulfonamide]	0.0272 µM	69%	–
COC(=O)c1ccc(S(=O)(=O)N(Cc2ccc(OC(F)(F)F)cc2)c2sc3ccccc3c2C2CCC2)cc1 [Compound 754, N-(3-Cyclobutyl-benzo[b]thiophen-2-yl)-N-(4-trifluoromethoxy-benzyl)-4-carbomethoxy-benzenesulfonamide]	0.0164 µM	82%	–
O=C(O)c1ccc(S(=O)(=O)N(Cc2ccc(OC(F)(F)F)cc2)c2sc3ccccc3c2C2CC2)cc1 [Compound 755, N-(3-Cyclopropyl-benzo[b]thiophen-2-yl)-N-(4-trifluoromethoxyl-benzyl)-4-carboxy-benzenesulfonamide]	0.0009 µM	101%	–
O=C(O)c1ccc(S(=O)(=O)N(Cc2ccc(OC(F)(F)F)cc2)c2sc3ccccc3c2C2CCC2)cc1 [Compound 756, N-(3-Cyclobutyl-benzo[b]thiophen-2-yl)-N-(4-trifluoromethoxy-benzyl)-4-carboxy-benzenesulfonamide]	0.0014 µM	101%	–
COC(=O)CCCS(=O)(=O)N(Cc1ccc(F)c(C(F)(F)F)c1)c1sc2ccccc2c1C [Compound 757, N-(4-Fluoro-3-trifluoromethyl-benzyl)-N-(3-methyl-benzo[b]thiophen-2-yl)-3-carbomethoxy-propanesulfonamide]	0.0108 µM	101%	–
Cc1c(N(Cc2ccc(F)c(C(F)(F)F)c2)S(=O)(=O)CCCCO)sc2ccccc12 [Compound 758, N-(4-Fluoro-3-trifluoromethyl-benzyl)-N-(3-methyl-benzo[b]thiophen-2-yl)-4-hydroxy-butanesulfonamide]	0.0051 µM	101%	–
Cc1c(N(Cc2ccc(F)c(C(F)(F)F)c2)S(=O)(=O)CCCC(C)(C)O)sc2ccccc12 [Compound 759, N-(4-Fluoro-3-trifluoromethyl-benzyl)-N-(3-methyl-benzo[b]thiophen-2-yl)-4-hydroxy-4-methyl-pentane-1-sulfonamide]	0.0183 µM	101%	–
COC(=O)CCS(=O)(=O)N(Cc1cccc(OC(F)(F)F)c1)c1sc2ccccc2c1C [Compound 760, N-(3-Methyl-benzo[b]thiophen-2-yl)-N-(3-trifluoromethoxy-benzyl)-2-carbomethoxy-ethanesulfonamide]	0.0459 µM	94%	–

SMILES	IC50	inhibition at 0.2 µM	% Inh @ 0.2 (μM)
COC(=O)CS(=O)(=O)N(Cc1ccc(OC(F)(F)F)cc1)c1sc2ccccc2c1C [Compound 761, N-(3-Methyl-benzo[b]thiophen-2-yl)-N-(4-trifluoromethoxy-benzyl)-carbomethoxy-methanesulfonamide]	0.04 µM	79%	–
Cc1c(N(Cc2cccc(OC(F)(F)F)c2)S(=O)(=O)CCC(=O)O)sc2ccccc12 [Compound 762, N-(3-Methyl-benzo[b]thiophen-2-yl)-N-(3-trifluoromethoxy-benzyl)-2-carboxy-ethanesulfonamide]	0.0253 µM	101%	–
Cc1c(N(Cc2cccc(OC(F)(F)F)c2)S(=O)(=O)CCC(C)(C)O)sc2ccccc12 [Compound 763, N-(3-Methyl-benzo[b]thiophen-2-yl)-N-(3-trifluoromethoxy-benzyl)-3-hydroxy-3-methyl-butane-1-sulfonamide]	0.0277 µM	102%	–
Cc1c(N(Cc2cccc(OC(F)(F)F)c2)S(=O)(=O)CCCO)sc2ccccc12 [Compound 764, N-(3-Methyl-benzo[b]thiophen-2-yl)-N-(3-trifluoromethoxy-benzyl)-3-hydroxy-propanesulfonamide]	0.0221 µM	101%	–
Cc1c(N(Cc2ccc(F)c(C(F)(F)F)c2)S(=O)(=O)CCCC(=O)O)sc2ccccc12 [Compound 765, N-(4-Fluoro-3-trifluoromethyl-benzyl)-N-(3-methyl-benzo[b]thiophen-2-yl)-3-carboxy-propanesulfonamide]	0.0136 µM	101%	–
COc1cc(NS(C)(=O)=O)c(Cl)cc1S(=O)(=O)N(Cc1ccc(F)c(C(F)(F)F)c1)c1sc2ccccc2c1Cl [Compound 766, 5-Chloro-N-(3-chloro-benzo[b]thiophen-2-yl)-N-(4-fluoro-3-trifluoromethyl-benzyl)-4-methanesulfonylamino-2-methoxy-benzenesulfonamide]	0.0078 µM	101%	–
Cc1c(N(Cc2ccc(F)c(C(F)(F)F)c2)S(=O)(=O)c2ccc3c(c2)CN(C)CC3)sc2ccccc12 [Compound 767, 2-Methyl-N-(4-fluoro-3-trifluoromethyl-benzyl)-N-(3-methyl-benzo[b]thiophen-2-yl)-1,2,3,4-tetrahydroisoquinolin-7-yl-sulfonamide]	0.0892 µM	77%	–
C=C(C)c1c(N(Cc2cc(OC)c(Cl)cc2F)S(=O)(=O)CC)sc2ccccc12 [Compound 768, N-(4-Chloro-2-fluoro-5-methoxy-benzyl)-N-(3-isopropenyl-benzo[b]thiophen-2-yl)-ethanesulfonamide]	0.0188 µM	93%	–
Cc1c(N(Cc2cccc(OC(F)(F)F)c2)S(=O)(=O)CCCBr)sc2ccccc12 [Compound 769, N-(3-Methyl-benzo[b]thiophen-2-yl)-N-(3-trifluoromethoxy-benzyl)-3-bromo-propane-1-sulfonamide]	0.044 µM	85%	–
Cc1c(N(Cc2cccc(OC(F)(F)F)c2)S(=O)(=O)C2CC2)sc2ccccc12 [Compound 770, N-(3-Methyl-benzo[b]thiophen-2-yl)-N-(3-trifluoromethoxy-benzyl)-cyclopropanesulfonamide]	0.0072 µM	95%	–
Cc1c(N(Cc2ccc(F)c(C(F)(F)F)c2)S(=O)(=O)CCCCBr)sc2ccccc12 [Compound 771, N-(4-Fluoro-3-trifluoromethyl-benzyl)-N-(3-methyl-benzo[b]thiophen-2-yl)-4-bromo-butane-1-sulfonamide]	0.0072 µM	96%	–
CC(=O)c1c(N(Cc2ccc(OC(F)(F)F)cc2)S(=O)(=O)c2ccc(C#N)cc2)sc2ccccc12 [Compound 772, N-(3-Acetyl-benzo[b]thiophen-2-yl)-N-(4-trifluoromethoxy-benzyl)-4-cyano-benzenesulfonamide]	0.0057 µM	95%	–
CC(=O)c1c(N(CCCCC(F)(F)F)S(=O)(=O)c2ccc(C#N)cc2)sc2ccccc12 [Compound 773, N-(3-Acetyl-benzo[b]thiophen-2-yl)-N-(5,5,5-trifluoro-pentyl)-4-cyano-benzenesulfonamide]	0.0167 µM	94%	–
Cc1c(N(Cc2ccc(OC(F)(F)F)cc2)S(=O)(=O)c2ccc(C(=O)O)c(F)c2)sc2ccccc12 [Compound 774, N-(3-Methyl-benzo[b]thiophen-2-yl)-N-(4-trifluoromethoxy-benzyl)-3-fluoro-4-carboxy-benzenesulfonamide]	0.0013 µM	95%	–
Cc1c(N(Cc2ccc(F)c(C(F)(F)F)c2)S(=O)(=O)c2ccc(C(=O)O)c(F)c2)sc2ccccc12 [Compound 775, N-(3-Methyl-benzo[b]thiophen-2-yl)-N-(4-fluoro-3-trifluoromethyl-benzyl)-3-fluoro-4-carboxy-benzenesulfonamide]	0.0016 µM	95%	–
